From paper PMC11100219, “Dual-function antimicrobial-antibiofilm peptide hybrid to tackle biofilm-forming Staphylococcus epidermidis” (Annals of Clinical Microbiology and Antimicrobials, 2024)
Residues, ends and D or L forms follow the SMILES beside them.

Key:
[1] = system: all gram-positive bacterial strains; assay: Mean MIC and therapeutic index, gram-positive strains; assay type: cell-based; conditions: four gram-positive strains
Protocol: The minimal inhibitory concentrations (MICs) of peptide derivatives versus planktonic bacteria were assessed using a modification of the broth microdilution assay previously described in the National Committee for Clinical Laboratory Standards (NCCLS). In brief, bacteria at mid-logarithmic growth were collected by centrifugation at 2,500 × g for 5 min. Subsequently, the pellet was resuspended and adjusted in Mueller-Hinton Broth (MHB; BD Bacto™, USA) to an OD620 of 0.05. Fifty µL of bacterial suspensions was transferred to 96-well microplates. Later, 50 µL of peptide derivatives at 0.98–250 µg/mL in 10 mM PBS, was added to wells and incubated for 24 h at 37°C with continuous shaking at 220 rpm. […] The experiments were done in three technical replicates and repeated independently.
The therapeutic index (TI) is widely used for evaluating a peptide’s efficacy and safety. It is the ratio between the minimum hemolytic concentration (MHC, the concentration causing 10% hemolysis) and the geometric mean (GM) value of the MIC [15]. […] While, both lysine-substituted peptides (BiF2_7K and BiF2_5K7K) had higher TIs against all tested biofilm-forming bacteria than did the two parent peptides, and the TI of BiF2_5K7K was higher than that of BiF2_7K.

[2] = system: planktonic S. epidermidis; assay: Time-killing analysis; assay type: cell-based, Staphylococcus epidermidis; conditions: for number of S. epidermidis: within 4 h, MHB, 37°C
Protocol: The time-dependent bactericidal activity of BiF2_5K7K against planktonic S. epidermidis was determined as previously described. In brief, mid-log phase bacteria in MHB were exposed to BiF2_5K7K at MIC and/or MBC for 24 h at 37°C. The bacterial suspensions were obtained at specific time point (0, 2, 4, 6, 8 and 24 h), and 10-fold serially diluted with PBS and then plated on TSA. Untreated bacterial suspension was served as a control. After incubation, the number of CFUs was determined by colony count.

[3] = system: S. epidermidis biofilm matrix; assay: Confocal laser scanning microscopy of biofilm formation (AAA model); assay type: cell-based, Staphylococcus epidermidis; conditions: at MBIC50 (7.81 µg/mL), 24 h; p-value < 0.001
Protocol: An Amsterdam active attachment (AAA) model was used to assess the effectiveness of BiF2_5K7K to inhibit biofilm formation as previously described. In a 24-well microplate, various concentrations of BiF2_5K7K were incubated overnight with 10^7 CFU/mL of S. epidermidis. The plate was then covered with a sanitary stainless-steel lid containing double-glass coverslips. Following 24 h of incubation at 37°C, the biofilms were washed, and then […] green Alexa-ConA (Sigma-Aldrich, USA) was applied for 30 min to stain the biofilms. After staining, biofilms were fixed for 3 h with 2.5% glutaraldehyde. Biofilm images were acquired using a confocal laser scanning microscope (CLSM; Carl-Zeiss/LSM800, Zeiss, Germany). The fluorescence intensity of each test was analysed using ZEN 2.1 (blue edition) software.

[4] = system: S. epidermidis biofilm formation genes (ica, agr); assay: Transcriptional analysis, real-time RT-PCR; assay type: cell-based, Staphylococcus epidermidis; conditions: at MBIC50, 24 h
Protocol: The expression level of S. epidermidis biofilm formation gene was investigated using a real-time reverse transcription-polymerase chain reaction. In brief, total RNA of S. epidermidis biofilm, both untreated and treated with BiF2_5K7K (at MBIC50 for 24 h), was extracted by a RNeasy PowerBiofilm Kit (Qiagen, USA) and immediately reverse transcribed to cDNA by iScript reserve transcription supermix (Biolabs, UK). RNAprotect Bacteria Reagent (Qiagen, USA) was used to preserve RNA during isolation. Remaining DNA was removed by treatment with DnaseI (Biolabs, UK). Real-time RT-PCR was done in duplicate using iTaq Universal SYBR Green Supermix (Bio-Rad, USA) with 5 ng of cDNA and […] of forward and reverse primers (Table S1) using a CFX96 Real-Time PCR Detection System (Bio-Rad, USA). The cycling condition was started with an initial denaturation at 95°C for 2 min, followed by 50 amplification cycles consisting of 95°C for 30 s, 56°C for 1 min, and 72°C for 1 min. Subsequently, a melting curve was generated from 65°C to 95°C at intervals of 1 s at the end of each run. To analyse the relative quantitation of gene expression, 2^− ΔΔCt method was used, and 16S ribosomal subunit (rRNA) was served as the reference or housekeeping gene.

[5] = system: preformed S. epidermidis biofilm; assay: Biofilm eradication activity (peg lid, colony counting); assay type: cell-based, Staphylococcus epidermidis; conditions: 24 h treatment
Protocol: The eradication capacity of BiF2_5K7K against preformed biofilm was examined as previously described with some modifications. In brief, suspensions of S. epidermidis with a final density of 10^6 CFU/mL were added to 96-well microplates, then covered with 96-peg lids (Nunc™ Immuno TSP Lids, Denmark). Following 24 h of incubation at 37°C, the peg lids were washed with 0.85% NaCl to remove culture media and non-adherent cells. Afterwards, the biofilms adherent to peg lids were incubated at 37°C for 24 h with different concentrations of peptide derivatives. The peg lids were subsequently washed and placed on new plates containing PBS. The biofilms on the lid were removed using a water bath sonicator (Bandelin SONOREX™, Germany). Biofilms were subsequently diluted and then placed on TSA. Minimum biofilm eradication concentrations at 50% and 90% (MBEC50 and MBEC90) refer to the concentration of the peptide at which established biofilm was eradicated by at least 50% and 90%, respectively.

[6] = system: mature S. epidermidis biofilm; assay: Confocal laser scanning microscopy of mature biofilm; assay type: cell-based, Staphylococcus epidermidis
Protocol: The effect of BiF2_5K7K against mature biofilm was also investigated. In short, overnight cultures of S. epidermidis were diluted to 10^7 CFU/mL with TSB and further incubated at 37°C for 24 h to form biofilms. Next, wells were rinsed with sterile water and mature biofilms was treated with BiF2_5K7K at concentration of MBEC50 and further incubated for 24 h. Subsequently, biofilms were washed again, then stained with green Alexa-ConA and LIVE/DEADTM BacLight™ Bacterial Viability Kit (Invitrogen™, Thermo Fisher, USA) for 15 min. After staining, 2.5% glutaraldehyde was used to fixed biofilms, then observed under CLSM as described above.

## CC[C@H](C)[C@H](NC(=O)[C@H](CCCCN)NC(=O)[C@H](CCCCN)NC(=O)[C@@H](NC(=O)[C@H](CC(C)C)NC(=O)[C@@H](N)Cc1ccccc1)C(C)C)C(=O)N[C@@H](CCCCN)C(=O)N[C@@H](CCCCN)C(=O)N[C@H](C(=O)N[C@@H](CC(C)C)C(=O)N[C@@H](CCCNC(=N)N)C(=O)N[C@@H](CCCNC(=N)N)C(N)=O)[C@@H](C)CC [BiF2_5K7K] (H-FLVKKIKKILRR-NH2; N-terminus assumed)
[1]
  GM +, geometric mean of MIC values from all gram-positive bacterial strains: 199.22 µg/mL
[2]; peptide at MBC
  number of S. epidermidis: approximately 10^3 CFU/mL
[2]; peptide at MIC, after 8 h
  regrowth: regrowth was observed
[2]; peptide at MIC
  number of S. epidermidis: approximately 10^3 CFU/mL
[3]
  fluorescence intensity of Alexa Fluor 488 stained biofilm vs untreated control: significantly lower
[4]
  agrC and agrA gene expression: neither agrC nor agrA gene expression changed at all
  expression of quorum-sensing genes agrD and agrB vs untreated control: reduced
  levels of icaC or icaR genes: no alteration
[4]; 2^-ΔΔCt, 16S rRNA reference, significantly upregulated
  relative expression level of icaA, icaD and icaB genes: greater than 1
[5]; 24 h preformed biofilm on peg lids, 37°C
  MBEC50: 31.25 µg/mL
[5]; more than 90% of mature biofilm eradicated
  MBEC90: 125 µg/mL
[6]; at MBEC50, 24 h, p-value < 0.01
  fluorescence intensity ratio (live to dead cells), treated vs untreated: significant difference
[6]; at MBEC50, 24 h treatment
  mature biofilm matrix (Alexa-ConA fluorescence intensity): significant decrease
